Results as given in ChEMBL document CHEMBL3808365, “Potent and Selective CK2 Kinase Inhibitors with Effects on Wnt Pathway Signaling in Vivo” (ACS Med Chem Lett, 2016).
Converted amounts (≈) assume the structure as drawn.

Columns and labels:
[1] = Fraction unbound in human plasma at 10 uM by equilibrium dialysis method; type: ADME, cell-free
[2] = Inhibition of CK2 in mouse L-Wnt3a cells assessed as suppression of Wnt3a-mediated L S/L Super TOPFlash reporter gene transcription after 24 hrs; settings: L Wnt-3A
[3] = Intrinsic clearance in human liver microsomes; type: ADME; settings: read-out: CLH
[4] = Intrinsic clearance in rat hepatocyte assessed per 10^6 cells; type: ADME, cell-based; settings: hepatocytes, read-out: CLH
[5] = Aqueous solubility of the compound in phosphate buffer at pH 7.4 incubated for 24 hrs by LC/MS/MS method; type: physicochemical
[6] = Antiproliferative activity against human […] cells after 72 hrs by alamar blue assay; type: functional; settings: HCT-116, 72 h
[7] = Antiproliferative activity against human SW620 cells after 72 hrs by alamar blue assay; type: functional; settings: SW-620, 72 h
[8] = Antiproliferative activity against human DLD1 cells after 72 hrs by alamar blue assay; type: functional; settings: DLD-1, 72 h
[9] = biological target: Casein kinase II subunit alpha (Homo sapiens, UniProt P68400); test: Inhibition of full length N-terminal 6xHis-tagged recombinant human CK2alpha expressed in fall armyworm Sf21 cells using BODIPY-FL-RRRDDDSDDD-CONH2 as substrate after 90 mins by mobility shift assay
Casein kinase II subunit alpha, sequence (P68400 whole entry): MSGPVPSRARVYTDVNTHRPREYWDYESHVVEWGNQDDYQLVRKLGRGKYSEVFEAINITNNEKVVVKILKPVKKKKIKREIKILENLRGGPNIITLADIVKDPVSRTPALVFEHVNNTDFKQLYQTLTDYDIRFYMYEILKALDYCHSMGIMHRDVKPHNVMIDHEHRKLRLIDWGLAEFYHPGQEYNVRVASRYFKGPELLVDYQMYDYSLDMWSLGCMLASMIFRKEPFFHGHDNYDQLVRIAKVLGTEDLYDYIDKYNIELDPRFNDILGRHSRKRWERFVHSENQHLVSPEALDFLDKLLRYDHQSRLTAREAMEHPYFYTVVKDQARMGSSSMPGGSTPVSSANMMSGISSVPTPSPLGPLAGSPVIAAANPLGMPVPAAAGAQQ

Casein kinase II = Casein kinase II (Homo sapiens, UniProt P19784+P67870+P68400); test: Inhibition of CK2 in human DLD1 HA-myr-AKT1 cells assessed as suppression of AKTser129 phosphorylation after 3 to 24 hrs by Western blot analysis
Casein kinase II, sequence (P67870 whole entry): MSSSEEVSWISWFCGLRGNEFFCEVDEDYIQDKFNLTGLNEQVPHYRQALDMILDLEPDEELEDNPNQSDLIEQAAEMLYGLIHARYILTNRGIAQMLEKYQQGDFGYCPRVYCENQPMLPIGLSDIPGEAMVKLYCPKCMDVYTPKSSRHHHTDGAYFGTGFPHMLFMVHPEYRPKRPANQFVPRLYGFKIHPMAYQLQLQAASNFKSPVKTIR
Casein kinase II, sequence (P68400 whole entry): as the sequence (P68400 whole entry) above
Casein kinase II, sequence (P19784 whole entry): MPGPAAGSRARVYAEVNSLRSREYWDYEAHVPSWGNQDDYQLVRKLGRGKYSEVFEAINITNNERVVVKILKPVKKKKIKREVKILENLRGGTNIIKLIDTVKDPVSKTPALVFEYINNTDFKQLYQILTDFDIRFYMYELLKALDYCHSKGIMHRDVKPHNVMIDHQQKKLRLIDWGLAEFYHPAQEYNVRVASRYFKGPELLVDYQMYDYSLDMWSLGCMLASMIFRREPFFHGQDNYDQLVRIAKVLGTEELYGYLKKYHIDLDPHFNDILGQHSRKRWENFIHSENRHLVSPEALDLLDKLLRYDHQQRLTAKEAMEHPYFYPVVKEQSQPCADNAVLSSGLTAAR

| SMILES | fraction unbound at 10 µM [1] | IC50 [2] | microsomal CLint [3] | hepatocyte CLint [4] | solubility at 24 h [5] | IC50 [9] | IC50 (Casein kinase II) | GI50 [6] | GI50 [7] | GI50 [8] |
| --- | --- | --- | --- | --- | --- | --- | --- | --- | --- | --- |
| CC(=O)Nc1cc(Nc2cc(NC3CC3)n3ncc(C#N)c3n2)ccc1C | 0.1 |  | 10 µL/min/mg | 5 µL/min/1e6 cells |  |  |  | 80 nM | 100 nM | 170 nM |
| CC(=O)Nc1cccc(Nc2cc(NC3CC3)n3ncc(C#N)c3n2)c1 | 0.05 | 600 nM | 20 µL/min/mg | 26 µL/min/1e6 cells | 15 µM (≈ 5.21 µg/mL) |  |  | 700 nM | 700 nM |  |
| CC(=O)Nc1cc(Nc2cc(NC3CC3)n3ncc(C#N)c3n2)ccc1N(C)CCO | 0.07 |  | 21 µL/min/mg | 17 µL/min/1e6 cells | 2 µM (≈ 0.841 µg/mL) | < 3 nM |  |  |  |  |
| CC(=O)Nc1cc(Nc2cc(NC3CC3)n3ncc(C#N)c3n2)ccc1N(C)C[C@H](C)N | 0.36 | 670 nM | < 3 µL/min/mg | < 1 µL/min/1e6 cells | 895 µM (≈ 388 µg/mL) | < 3 nM | 4 nM |  |  |  |

Now from value to compound, other results behind:

| fraction unbound at 10 µM [1] | IC50 [2] | microsomal CLint [3] | hepatocyte CLint [4] | solubility at 24 h [5] | IC50 [9] | IC50 (Casein kinase II) | SMILES | GI50 [6] | GI50 [7] | GI50 [8] |
| --- | --- | --- | --- | --- | --- | --- | --- | --- | --- | --- |
| 0.11 | 510 nM | 19 µL/min/mg | < 1 µL/min/1e6 cells | > 900 µM |  |  | CC(=O)Nc1cc(Nc2cc(NC3CC3)n3ncc(C#N)c3n2)ccc1N1CCC[C@@H](N(C)C)C1 |  |  |  |
| 0.29 | 380 nM | 9 µL/min/mg | 2.5 µL/min/1e6 cells | > 800 µM |  |  | CC(=O)Nc1cc(Nc2cc(NC3CC3)n3ncc(C#N)c3n2)ccc1N1CC[C@H](N(C)C)C1 |  |  |  |
| 0.18 | 1100 nM | < 4 µL/min/mg | 7 µL/min/1e6 cells | 570 µM (≈ 254 µg/mL) |  |  | CC(=O)Nc1cc(Nc2cc(NC3CC3)n3ncc(C#N)c3n2)ccc1N1CCN(C)CC1 |  |  |  |
| 0.22 | 180 nM | < 3 µL/min/mg | < 1 µL/min/1e6 cells | 704 µM (≈ 314 µg/mL) |  |  | CC(=O)Nc1cc(Nc2cc(NC3CC3)n3ncc(C#N)c3n2)ccc1N1CCC[C@H](N)C1 |  |  |  |
| 0.31 | 690 nM | < 3 µL/min/mg | < 1 µL/min/1e6 cells | 590 µM (≈ 255 µg/mL) | < 3 nM | 70 nM | CC(=O)Nc1cc(Nc2cc(NC3CC3)n3ncc(C#N)c3n2)ccc1N1CC[C@H](N)C1 |  |  |  |
